Assay results: US9156840B2, “D2 antagonists, methods of synthesis and methods of use” (ALTOS THERAPEUTICS, LLC, priority 2010, dated 2015)
Structures can show the parent of a compound that is named as a salt.

What follows are compounds tested against T1, human D2 receptor (Homo sapiens, UniProt P14416) (assay: D2 receptor radioligand binding assay (membranes of HEK-293 cells expressing human D2 receptor)). Conditions: radioligand displacement, HEK293 membranes, 37° C. for 120 minutes; read-out: Affinity Score (IC50 values for D2 on a scale of 1 through 5).
T1 construct: expressed in transfected cells; cDNA from Origene clones TC308892 and SC123573
T1 sequence (P14416 whole entry): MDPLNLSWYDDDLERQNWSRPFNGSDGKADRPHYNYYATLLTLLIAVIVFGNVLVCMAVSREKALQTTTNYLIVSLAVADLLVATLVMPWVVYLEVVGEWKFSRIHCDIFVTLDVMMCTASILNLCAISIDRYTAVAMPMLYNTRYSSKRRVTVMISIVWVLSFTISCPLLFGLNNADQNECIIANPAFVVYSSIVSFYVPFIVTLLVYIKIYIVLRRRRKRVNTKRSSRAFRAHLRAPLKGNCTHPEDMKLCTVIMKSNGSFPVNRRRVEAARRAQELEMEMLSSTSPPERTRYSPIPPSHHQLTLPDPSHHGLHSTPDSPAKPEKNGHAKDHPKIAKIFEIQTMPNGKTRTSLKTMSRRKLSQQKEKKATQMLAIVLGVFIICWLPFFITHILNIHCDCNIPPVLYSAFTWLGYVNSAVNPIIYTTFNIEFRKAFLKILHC
Procedure: Affinity for the dopamine D2 receptor was tested in vitro, and the following describes the construction of cell lines expressing human D2 receptor, as well as the binding assays themselves.
Establishment of Stable Cell Lines Expressing Either the Cloned Human D2S Receptor or the Cloned Human D2L Receptor.
The human D2 receptor exists in two isoforms: the short form (D2S) and the long form (D2L). The two isoforms are generated from the D2 gene by alternative splicing and the D2L isoform differs from the D2S isoform by the addition of 29 amino acids in the third intracellular loop of its protein structure.
To establish HEK-293 cell lines stably expressing either the human D2S or the human D2L, the human dopamine D2S receptor (Genebank Accession Number NM_016574) and human dopamine D2L receptor (Genebank Accession Number BC021195) were amplified by PCR from Origene cDNA clones TC308892 and SC123573 (respectively) using the following primers: 5-[…]-3 (SEQ ID NO: 1) sense and 5-[…]-3 (SEQ ID NO: 2) antisense. The resulting PCR products were respectively cloned into pENTR-D-TOPO (Invitrogen), sequenced and then transferred into the pCDNA3.2-DEST (Invitrogen) using the LR-clonasc gateway reaction (Invitrogen) and sequenced again to verify the genes sequence.
HEK293 cells were maintained in Eagles Minimum Essential Medium (MEM) supplemented with 0.292 g/L L-glutamine and 10% (v/v) fetal calf serum at 37° C. in a 5% CO2 humidified atmosphere. Cells were grown to 60-80% confluency in 10 cm dishes before transfection. Transfection of the D2S and D2L containing pcDNA3.2-DEST into HEK-293 cells were performed using Lipofectamine 2000 (Invitrogen). Transfected cells were seeded and diluted 2 days after transfection and maintained in culture medium supplemented with 500 μg/mL G418. The HEK-293 cell line expressing the huD2S (R2D2S) and the huD2L (R2D2L) were maintained in culture medium supplemented with 500 μg/mL G418.
D2 Receptor Binding Assays
HEK293 cells were in Eagles Minimum Essential Medium (MEM) supplemented with 10% FBS, 0.292 g/liter L-glutamine, 10^5 units/liter penicillin, 100 mg/liter streptomycin and […] Geneticin at 37° C. in a 5% CO2 humidified atmosphere. Cells were grown to 80-90% confluence and harvested with cell stripper (Cellgro #25-056-CI). Cells were then washed with PBS (2×). Cells were either pelleted and frozen at −80° C. or membranes were prepared immediately.
Cells from pellet were resuspended in homogenization buffer (15 mM Tris*HCl, 2 mM MgCl2*6H2O, 0.3 mM EDTA, 1 mM EGTA pH 7.4 @ 4° C.). Cells were then homogenized using a Polytron (PT 1200) homogenizer at setting 6 for 10 seconds. Crude membranes were pelleted at 39, 412 g for 15 min, at 4° C. (2×) in a Sorval RC6 plus centrifuge. Membranes were finally resuspended in resuspension buffer (50 mM Tris*HCl, 120 mM NaCl, 10 mM MgCl2*6H2O, 1 mM EDTA pH 7.4 @ 4° C.) and sonicated (Fisher Sonic Dismembrator) at setting 5 for 10 seconds.
The radioligand binding assays were conducted in microtiter plates (Costar #3961) with a final volume of 1.0 mL.
The membranes were thawed at room temperature, briefly homogenized using a sonicator, diluted in assay buffer and kept on wet ice until being added to the assay plate. Membranes were diluted to a final target tissue concentration of 10 μg protein per well. The specific binding should be greater than 80% with less than 10% total radioligand bound to minimize ligand depletion errors.
First compound of the invention (50 μL) or assay buffer (50 mM Tris*HCl, 120 mM NaCl, 5 mM MgCl2*6H2O, 1 mM EDTA, 5 mM KCl pH 7.4 @37° C. plus 0.025% BSA), buffer (700 μL) and then membrane (200 μL) were added to the deep well assay plate, which was then shaken for 10 minutes. Finally, radioligand (50 μL) was added.
The assay plates were incubated at 37° C. for 120 minutes.
The assay plate were filtered over 0.3% PEI pretreated glass fiber filtermats (GF/C) using a Packard Filtermate cell harvester. […]

| Structure (SMILES) | IC50 [nM] |
| --- | --- |
| O=C(O)c1cccc(CN2CN(c3ccccc3)C3(CCN(CC4COc5ccccc5O4)CC3)C2=O)c1 (stereo not drawn) [Compound 76, 3-((8-((2,3-Dihydrobenzo[b][1,4]dioxin-2-yl)methyl)-4-oxo-1-phenyl-1,3,8-triazaspiro[4.5]decan-3-yl)methyl)benzoic acid] | < 10 |
| O=C(O)c1cccc(CN2CN(c3ccccc3)C3(CCN(CCCn4nnc5ccccc54)CC3)C2=O)c1 [Compound 85, 3-((8-(3-(1H-Benzo[d][1,2,3]triazol-1-yl)propyl)-4-oxo-1-phenyl-1,3,8-triazaspiro[4.5]decan-3-yl)methyl)benzoic acid] | < 10 |
| O=C(O)c1cccc(CN2CN(c3ccccc3)C3(CCN(CCCN4C(=O)Cc5ccccc54)CC3)C2=O)c1 [Compound 89, 3-((4-oxo-8-(3-(2-oxoindolin-1-yl)propyl)-1-phenyl-1,3,8-triazaspiro[4.5]decan-3-yl)methyl)benzoic acid, hydrochloride] | < 10 |
| O=C(O)c1cccc(CN2CN(c3ccccc3)C3(CCN(CCCn4c(=O)[nH]c5ccc(Cl)cc54)CC3)C2=O)c1 [Compound 100, 3-((8-(3-(6-Chloro-2-oxo-2,3-dihydro-1H-benzo[d]imidazol-1-yl)propyl)-4-oxo-1-phenyl-1,3,8-triazaspiro[4.5]decan-3-yl)methyl)benzoic acid] | < 10 |
| CC(C)(Oc1ccc(CN2CN(c3ccccc3)C3(CCN(CCCn4c(=O)[nH]c5ccccc54)CC3)C2=O)cc1)C(=O)O [Compound 102, 2-Methyl-2-(4-((4-oxo-8-(3-(2-oxo-2,3-dihydro-1H-benzo[d]imidazol-1-yl)propyl)-1-phenyl-1,3,8-triazaspiro[4.5]decan-3-yl)methyl)phenoxy)propanoic acid] | < 10 |
| O=C(O)c1cccc(CN2CN(c3ccccc3)C3(CCN(CCCn4c(=O)n(C5CC5)c5ccccc54)CC3)C2=O)c1 [Compound 120, 3-((8-(3-(3-Cyclopropyl-2-oxo-2,3-dihydro-1H-benzo[d]imidazol-1-yl)propyl)-4-oxo-1-phenyl-1,3,8-triazaspiro[4.5]decan-3-yl)methyl)benzoic acid] | < 10 |
| CC1(C)C(=O)N(CCCN2CCC3(CC2)C(=O)N(Cc2cccc(C(=O)O)c2)CN3c2ccc(F)cc2)c2ccccc21 [Compound 123, 3-((8-(3-(3,3-Dimethyl-2-oxoindolin-1-yl)propyl)-1-(4-fluorophenyl)-4-oxo-1,3,8-triazaspiro[4.5]decan-3-yl)methyl)benzoic acid] | < 10 |
| O=C(O)c1cccc(CN2CN(c3ccccc3)C3(CCN(CCCN4C(=O)C5(CC5)c5ccccc54)CC3)C2=O)c1 [Compound 130, 3-((4-oxo-8-(3-(2′-oxospiro[cyclopropane-1,3′-indoline]-1′-yl)propyl)-1-phenyl-1,3,8-triazaspiro[4.5]decan-3-yl)methyl)benzoic acid, hydrochloride salt] | < 10 |
| CC1(C)C(=O)N(CCCN2CCC3(CC2)C(=O)N(Cc2ccccc2C(=O)O)CN3c2ccccc2)c2ccccc21 [Compound 137, 2-((8-(3-(3,3-Dimethyl-2-oxoindolin-1-yl)propyl)-4-oxo-1-phenyl-1,3,8-triazaspiro[4.5]decan-3-yl)methyl)benzoic acid] | < 10 |
| O=C(O)c1cccc(CN2CN(c3ccc(F)cc3)C3(CCN(CCCN4C(=O)C5(CC5)c5ccccc54)CC3)C2=O)c1 [Compound 138, 3-((1-(4-Fluorophenyl)-4-oxo-8-(3-(2′-oxospiro[cyclopropane-1,3′-indoline]-1′-yl)propyl)-1,3,8-triazaspiro[4.5]decan-3-yl)methyl)benzoic acid] | < 10 |
| O=C(O)c1cccc(CN2CN(c3ccccc3)C3(CCN(CCCC(=O)c4cccs4)CC3)C2=O)c1 [Compound 143, 3-((4-oxo-8-(4-oxo-4-(thiophen-2-yl)butyl)-1-phenyl-1,3,8-triazaspiro[4.5]decan-3-yl)methyl)benzoic acid, hydrochloride] | < 10 |
| O=C(O)c1cccc(CN2CN(c3ccc(F)cc3)C3(CCN(CCCN4C(=O)Cc5ccccc54)CC3)C2=O)c1 [Compound 145, 3-((1-(4-Fluorophenyl)-4-oxo-8-(3-(2-oxoindolin-1-yl)propyl)-1,3,8-triazaspiro[4.5]decan-3-yl)methyl)benzoic acid] | < 10 |
| CC1C(=O)N(CCCN2CCC3(CC2)C(=O)N(Cc2cccc(C(=O)O)c2)CN3c2ccccc2)c2ccccc21 (stereo not drawn) [Compound 146, 3-((8-(3-(3-methyl-2-oxoindolin-1-yl)propyl)-4-oxo-1-phenyl-1,3,8-triazaspiro[4.5]decan-3-yl)methyl)benzoic acid] | < 10 |
| O=C(O)c1ccccc1CN1CN(c2ccccc2)C2(CCN(CCCN3C(=O)Cc4ccccc43)CC2)C1=O [Compound 148, 2-((4-Oxo-8-(3-(2-oxoindolin-1-yl)propyl)-1-phenyl-1,3,8-triazaspiro[4.5]decan-3-yl)methyl)benzoic acid] | < 10 |
| O=C(O)c1ccccc1CN1CN(c2ccccc2)C2(CCN(CCCN3C(=O)C4(CC4)c4ccccc43)CC2)C1=O [Compound 149, 2-((4-Cho-8-(3-(2′-oxospiro[cyclopropane-1,3′-indoline]-1′-yl)propyl)-1-phenyl-1,3,8-triazaspiro[4.5]decan-3-yl)methyl)benzoic acid] | < 10 |
| O=C(O)c1ccccc1CN1CN(c2ccc(F)cc2)C2(CCN(CCCN3C(=O)Cc4ccccc43)CC2)C1=O [Compound 152, 2-((1-(4-Fluorophenyl)-4-oxo-8-(3-(2-oxoindolin-1-yl)propyl)-1,3,8-triazaspiro[4.5]decan-3-yl)methyl)benzoic acid] | < 10 |
| O=C(CCCN1CCC2(CC1)C(=O)N(Cc1ccccc1C(=O)O)CN2c1ccccc1)c1ccccc1 [Compound 154, 2-((4-oxo-8-(4-oxo-4-phenylbutyl)-1-phenyl-1,3,8-triazaspiro[4.5]decan-3-yl)methyl)benzoic acid] | < 10 |
| O=C(O)c1ccccc1CN1CN(c2ccccc2)C2(CCN(CCCn3c(=O)n(C4CC4)c4ccccc43)CC2)C1=O [Compound 155, 2-((8-(3-(3-cyclopropyl-2-oxo-2,3-dihydro-1H-benzo[d]imidazol-1-yl)propyl)-4-oxo-1-phenyl-1,3,8-triazaspiro[4.5]decan-3-yl)methyl)benzoic acid] | < 10 |
| O=C(O)c1cccc(CN2CN(c3ccc(F)cc3)C3(CCN(CCCn4c(=O)n(C5CC5)c5ccccc54)CC3)C2=O)c1 [Compound 156, 3-((8-(3-(3-cyclopropyl-2-oxo-2,3-dihydro-1H-benzo[d]imidazol-1-yl)propyl)-1-(4-fluorophenyl)-4-oxo-1,3,8-triazaspiro[4.5]decan-3-yl)methyl)benzoic acid] | < 10 |
| O=C(O)c1ccccc1CN1CN(c2ccc(F)cc2)C2(CCN(CCCn3c(=O)n(C4CC4)c4ccccc43)CC2)C1=O [Compound 159, 2-((8-(3-(3-cyclopropyl-2-oxo-2,3-dihydro-1H-benzo[d]imidazol-1-yl)propyl)-1-(4-fluorophenyl)-4-oxo-1,3,8-triazaspiro[4.5]decan-3-yl)methyl)benzoic acid] | < 10 |
| O=C(O)c1cccc(CN2CN(c3ccccc3)C3(CCN(CCCC4C(=O)Nc5ccccc54)CC3)C2=O)c1 (stereo not drawn) [Compound 160, 3-((4-oxo-8-(3-(2-oxoindolin-3-yl)propyl)-1-phenyl-1,3,8-triazaspiro[4.5]decan-3-yl)methyl)benzoic acid, hydrochloride] | < 10 |
